Data as given in the supplement of paper PMC8967900.

What was measured:
Test in all cases: selective drug sensitivity score (sDSS, relative to normal bone marrow) (sDSS (score)); higher = more potent and effective on the cell line relative to normal bone marrow cells
Settings in all cases: 72 h
CCRF-HSB2 = system: CCRF-HSB2
COG-LL-355h = system: COG-LL-355h
HAL-01 = system: HAL-01
HPB-ALL = system: HPB-ALL
KARPAS-45 = system: KARPAS-45
KASUMI-9 = system: KASUMI-9
KOPN-8 = system: KOPN-8
MHH-CALL-2 = system: MHH-CALL-2
MHH-CALL-4 = system: MHH-CALL-4
MN-60 = system: MN-60
MOLT-14 = system: MOLT-14
MOLT-16 = system: MOLT-16
MOLT-4 = system: MOLT-4
NALL-1 = system: NALL-1
P30-OHKUBO = system: P30-OHKUBO
PEER = system: PEER
REH = system: REH
SEM cells = system: SEM cells
SUP-B15 = system: SUP-B15
TANOUE = system: TANOUE
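Also: ALL cell lines in 384-well plates, five doses spanning 10,000-fold, each plate scaled between vehicle and 100 µmol/L benzalkonium chloride controls, sDSS an adapted area-under-curve metric.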

Row | Compound | selective drug sensitivity score (CCRF-HSB2) | selective drug sensitivity score (COG-LL-355h) | selective drug sensitivity score (HAL-01) | selective drug sensitivity score (HPB-ALL) | selective drug sensitivity score (KARPAS-45) | selective drug sensitivity score (KASUMI-9) | selective drug sensitivity score (KOPN-8) | selective drug sensitivity score (MHH-CALL-2) | selective drug sensitivity score (MHH-CALL-4) | selective drug sensitivity score (MN-60) | selective drug sensitivity score (MOLT-14) | selective drug sensitivity score (MOLT-16) | selective drug sensitivity score (MOLT-4) | selective drug sensitivity score (NALL-1) | selective drug sensitivity score (P30-OHKUBO) | selective drug sensitivity score (PEER) | selective drug sensitivity score (REH) | selective drug sensitivity score (SEM cells) | selective drug sensitivity score (SUP-B15) | selective drug sensitivity score (TANOUE)
1 | C[C@@H]1COCCN1c1cc(C2([S@](C)(=N)=O)CC2)nc(-c2cc[nH]c3nccc2-3)n1 [AZD6738] (top concentration 25000 nM) | 4.58 | 6.18 | 9.58 | 7.38 | 8.28 | 8.38 | 15.5 | 13.2 | 5.48 | -1.02 | 11.5 | 13 | 8.78 | 7.68 | 5.78 | 5.88 | 13.1 | 17.2 | 9.68 | -6.12
2 | NC1(C(=O)N[C@@H](CCO)c2ccc(Cl)cc2)CCN(c2ncnc3[nH]ccc23)CC1 [AZD-5363] (top concentration 10000 nM) | 4.02 | 5.92 | 4.02 | 1.82 | 5.82 | 3.52 | 6.72 | 7.82 | 5.52 | 0.12 | -1.88 | 13.3 | 7.42 | 4.72 | 5.22 | -0.88 | 11.3 | 4.82 | 0.42 | -2.88
3 | C[C@@H](Nc1cc(F)cc(F)c1)c1cc(C(=O)N(C)C)cc2c(=O)cc(N3CCOCC3)oc12 [AZD-8186] (top concentration 1000 nM) | 1.64 | 5.04 | 8.14 | 1.94 | 2.14 | 6.04 | 3.44 | 4.64 | 4.34 | -0.26 | -0.26 | -0.26 | -0.06 | 2.34 | 7.24 | -0.26 | 9.54 | 2.44 | -0.26 | -0.26
4 | COc1cccc2c1C(=O)c1c(O)c3c(c(O)c1C2=O)C[C@@](O)(/C(CO)=N/NC(=O)CCCCCN1C(=O)C=CC1=O)C[C@@H]3O[C@H]1C[C@H](N)[C@H](O)[C@H](C)O1 [Aldoxorubicin] (top concentration 1000 nM) | 14.8 | 4.44 | 0.34 | 1.04 | 0.94 | 8.64 | 14.2 | 9.84 | 8.14 | 0.84 | 12.9 | 16.6 | 11.8 | -1.86 | 7.34 | -3.06 | 12.1 | 3.64 | 12.5 | -7.76
5 | COc1cc(Nc2ncc3c(n2)-c2ccc(Cl)cc2C(c2c(F)cccc2OC)=NC3)ccc1C(=O)O [Alisertib] (top concentration 10000 nM) | 26.4 | 7.98 | 17.8 | 14.3 | 27.9 | 25 | 21.3 | 14.9 | -5.62 | -3.42 | 21 | 29.6 | 21.8 | 16.2 | 25.4 | 26.6 | 14.4 | 26.8 | 24 | -5.62
6 | Cc1nc(NC(=O)N2CCC[C@H]2C(N)=O)sc1-c1ccnc(C(C)(C)C(F)(F)F)c1 [Alpelisib] (top concentration 2500 nM) | 1.68 | 5.98 | 0.78 | 2.88 | 0.38 | 1.18 | 5.38 | 1.68 | -0.22 | 1.18 | -0.82 | -0.72 | 0.88 | -0.82 | 2.78 | -0.42 | -0.12 | -0.82 | -0.82 | -0.82
7 | CCN(CC)CCNC(=O)c1c(C)[nH]c(/C=C2\C(=O)Nc3ccc(-c4csc(-c5ccccc5)n4)cc32)c1C [Amcasertib] (top concentration 10000 nM) | 3.1 | 6.8 | 7.4 | 4.3 | 6.4 | -0.2 | -1.1 | 4.9 | 2.2 | -0.2 | 3.4 | 3.5 | -2.4 | 5.2 | 3.9 | 4 | 3.6 | 3 | 0.5 | -2.6
8 | COc1c(C)cnc(Cn2cnc3c(Cl)nc(N)nc32)c1C [BIIB021] (top concentration 10000 nM) | 10.8 | 0.38 | 3.98 | 3.58 | 8.88 | -1.22 | 12 | 2.48 | 1.28 | -2.62 | 7.28 | 12.7 | 11.8 | 1.08 | 3.38 | 3.58 | 5.68 | 7.38 | 4.48 | -8.12
9 | O=C(/C=C/c1cccc(S(=O)(=O)Nc2ccccc2)c1)NO [Belinostat] (top concentration 10000 nM) | 10.2 | 10.2 | 5.6 | 8.4 | 14.8 | 8.9 | 17.8 | 11 | 7.5 | 1.8 | 12.2 | 10.1 | 7.6 | 2.4 | 8 | 7.8 | 5.1 | 7.6 | 8.5 | -4.5
10 | Nc1cc(C(F)(F)F)c(-c2cc(N3CCOCC3)nc(N3CCOCC3)n2)cn1 [Buparlisib] (top concentration 10000 nM) | 4.18 | 5.68 | 4.98 | 6.38 | 5.28 | 6.58 | 7.28 | 5.28 | 2.78 | 2.68 | 5.48 | 4.08 | 4.38 | 1.28 | 7.28 | 6.48 | 5.18 | 7.08 | 4.38 | -1.22
11 | CCS(=O)(=O)N1CCN(c2ccc(Nc3ncc(C(N)=O)c(NC4CC4)n3)cc2)CC1 [Cerdulatinib] (top concentration 10000 nM) | 1.34 | -7.46 | -11.9 | -11.9 | -2.36 | -1.36 | 3.14 | -8.26 | -5.46 | -11.9 | -3.16 | -2.36 | -7.46 | -8.76 | 3.44 | -0.16 | -5.16 | 2.54 | 0.04 | -10.1
12 | CC(C)[C@H]1C(=O)N[C@@H](CCCNC(=N)N)C(=O)NCC(=O)N[C@@H](CC(=O)O)C(=O)N[C@H](Cc2ccccc2)C(=O)N1C [Cilengitide] (top concentration 10000 nM) | 0 | 0 | 6.5 | 0 | 0 | 0 | 13.8 | 7.1 | 5.5 | 0 | 0 | 0 | 0 | 11.8 | 4.2 | 0 | 0 | 0 | 0 | 0
13 | CC(C)(C)c1nc(-c2cccc(NS(=O)(=O)c3c(F)cccc3F)c2F)c(-c2ccnc(N)n2)s1 [Dabrafenib] (top concentration 2500 nM) | 4.48 | 0.38 | 1.18 | 2.98 | 2.18 | 3.58 | 8.48 | 9.18 | 3.08 | -0.92 | 1.48 | 4.68 | -1.52 | -1.42 | 5.18 | 3.48 | -1.52 | -1.52 | 1.88 | 0.48
14 | C[C@H]1O[C@@H](O[C@H]2[C@@H](O)C[C@H](O[C@H]3[C@@H](O)C[C@H](O[C@H]4CC[C@@]5(C)[C@H](CC[C@@H]6[C@@H]5C[C@@H](O)[C@]5(C)[C@@H](C7=CC(=O)OC7)CC[C@]65O)C4)O[C@@H]3C)O[C@@H]2C)C[C@H](O)[C@@H]1O [Digoxin] (top concentration 1000 nM) | 6.6 | 8.7 | 9.9 | 5.5 | 12.3 | 7.1 | 12.9 | 11.9 | 5.6 | 2.7 | 8 | 12 | 12.3 | 6.3 | 9.1 | 5.5 | 6.3 | 10 | 9.2 | -2.9
15 | C[C@H](Nc1ncnc2nc[nH]c12)c1cc2cccc(Cl)c2c(=O)n1-c1ccccc1 [Duvelisib] (top concentration 500 nM) | -0.44 | 4.96 | 9.76 | -0.94 | -0.44 | 3.36 | 0.16 | -0.94 | -0.34 | -0.94 | -0.94 | 1.26 | -0.94 | -0.94 | 5.76 | -0.94 | -0.94 | -0.54 | 0.06 | -0.94
16 | NC(=O)/C(=C/n1cnc(-c2cc(C(F)(F)F)cc(C(F)(F)F)c2)n1)c1cncnc1 [Eltanexor] (top concentration 10000 nM) | 12 | 14.5 | 5.46 | 5.86 | 8.96 | 11.1 | 14.2 | 11.4 | 6.76 | 0.06 | 15.4 | 14.4 | 11.4 | 2.76 | 11.8 | 7.56 | 7.06 | 3.96 | 13.7 | -11.8
17 | COC(=O)N[C@@H](C)CNc1nccc(-c2cn(C(C)C)nc2-c2cc(Cl)cc(NS(C)(=O)=O)c2F)n1 [Encorafenib] (top concentration 1000 nM) | 1.8 | 1.4 | 0 | 1.1 | 2.6 | 1.4 | 16.2 | 1.7 | 0 | 0 | 0 | 1 | 0 | 0 | 1.3 | 0.9 | 1.6 | 0.1 | 0.9 | 0
